Results reported in patent publication US20090170838A1, “Bicycloheteroaryl compounds as P2X7 modulators and uses thereof” (Renovis, Inc., priority 2005, published 2009).

Target: T1, P2X7 receptor (Homo sapiens, UniProt Q99572)
T1 construct: host or cells: THP-1 cells differentiated with LPS and IFN-γ
T1 sequence (Q99572 1-595): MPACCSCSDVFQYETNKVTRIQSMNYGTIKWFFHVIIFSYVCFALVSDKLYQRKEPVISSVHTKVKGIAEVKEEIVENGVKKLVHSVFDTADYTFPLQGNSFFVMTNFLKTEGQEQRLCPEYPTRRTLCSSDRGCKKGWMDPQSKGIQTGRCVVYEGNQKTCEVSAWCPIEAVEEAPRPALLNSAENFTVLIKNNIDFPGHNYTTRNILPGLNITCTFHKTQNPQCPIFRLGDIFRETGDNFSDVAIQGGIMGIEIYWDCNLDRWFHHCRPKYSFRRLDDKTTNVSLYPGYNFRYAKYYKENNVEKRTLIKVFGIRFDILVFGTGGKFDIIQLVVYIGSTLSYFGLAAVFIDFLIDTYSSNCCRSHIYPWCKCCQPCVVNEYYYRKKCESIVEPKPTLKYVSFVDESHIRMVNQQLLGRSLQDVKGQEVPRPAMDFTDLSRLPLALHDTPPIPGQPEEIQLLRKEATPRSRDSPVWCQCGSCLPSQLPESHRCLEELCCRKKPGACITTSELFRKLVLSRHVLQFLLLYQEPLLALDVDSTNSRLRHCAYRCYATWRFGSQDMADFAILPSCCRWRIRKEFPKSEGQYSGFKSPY
Assay: IL-1β release assay (BzATP-stimulated, LPS/IFN-γ differentiated THP-1 cells, ELISA)
Format: cell-based
Conditions: for inhibition at 0.3 µM: at 0.3 μM (plus symbols); for inhibition at 0.1 µM: at 0.1 μM (asterisk symbols)
Procedure: THP-1 cells (ATCC Cat # 285-IF-100) are plated in 96 well plates at a concentration of 200,000 cells per well and allowed to differentiate in RPMI-1640 media (ATCC Cat # 30-2001) containing 10% FBS, 100 IU/mL penicillin, 100 ug/mL streptomycin, 100 ng/mL LPS and 100 ng/mL IFN-γ for 16 hours. Following differentiation, the cells are treated for an additional 2 hours in RPMI-1640 media containing 100 IU/mL penicillin, 100 ug/mL streptomycin and fresh LPS at 100 ng/mL. The cells are then pretreated for 30 minutes with the compound of interest at the appropriate concentration in RPMI media containing 100 IU/mL penicillin, 100 ug/mL streptomycin. Following the pretreatment 2′,3′-O-(4-benzoylbenzoyl)-adenosine 5′-triphosphate (Sigma Aldrich Cat# B6396) is added to a final concentration of 250 uM and the cells incubated for an additional 45 minutes. 30 uL of cell supernatant is then collected and […] levels determined via ELISA (R&D systems Cat. # HSLB50) according to manufacturer's recommendations using the Tecan Safire plate reader. Background adjusted IL-1β levels of drug treated and non-treated cells are used to calculate the percent inhibition.

Row | SMILES | inhibition at 0.3 µM [%] | inhibition at 0.1 µM [%]
1 | O=C(CC12CC3CC(CC(C3)C1)C2)Nc1cccc2c(=O)n(Cc3ccccc3)ccc12 [Compound 701, 2-adamantan-1-yl-N-(2-benzyl-1-oxo-1,2-dihydro-isoquinolin-5-yl)-acetamide] | ≥ 75 | 
2 | O=C(CC12CC3CC(CC(C3)C1)C2)Nc1cccc2c(=O)n(Cc3ccc(F)cc3)ccc12 [Compound 703, 2-Adamantan-1-yl-N-[2-(4-fluoro-benzyl)-1-oxo-1,2-dihydro-isoquinolin-5-yl]-acetamide] | ≥ 75 | 
3 | O=C(CC12CC3CC(CC(C3)C1)C2)Nc1cccc2c1CCN(Cc1ccc(F)cc1)C2=O [Compound 704] | ≥ 75 | 
4 | O=C(CC12CC3CC(CC(C3)C1)C2)Nc1cccc2c(=O)n(Cc3ccc(F)cc3F)ccc12 [Compound 705] | ≥ 75 | 
5 | O=C(CC12CC3CC(CC(C3)C1)C2)Nc1cccc2c(=O)n(Cc3ccccc3F)ccc12 [Compound 706] | ≥ 75 | 
6 | O=C(CC12CC3CC(CC(C3)C1)C2)Nc1cccc2c(=O)n(Cc3ccccc3Cl)ccc12 [Compound 708] | ≥ 75 | 
7 | Cc1cnc(Cn2ccc3c(NC(=O)CC45CC6CC(CC(C6)C4)C5)cccc3c2=O)cn1 [Compound 710] | ≥ 75 | 
8 | CC(c1ccccc1)n1ccc2c(NC(=O)CC34CC5CC(CC(C5)C3)C4)cccc2c1=O (centres unmarked) [Compound 711] | ≥ 75 | 
9 | O=C(CC12CC3CC(CC(C3)C1)C2)Nc1cccc2c(=O)n(Cc3ccco3)ccc12 [Compound 712] | ≥ 75 | 
10 | O=C(CC12CC3CC(CC(C3)C1)C2)Nc1cccc2c(=O)n(Cc3ccc(C(F)(F)F)cc3)ccc12 [Compound 713] | ≥ 75 | 
11 | O=C(CC12CC3CC(CC(C3)C1)C2)Nc1cccc2c(=O)n(Cc3ccccn3)ccc12 [Compound 714] | ≥ 75 | 
12 | O=C(CC12CC3CC(CC(C3)C1)C2)Nc1cccc2c(=O)n(Cc3cccnc3)ccc12 [Compound 715] | ≥ 75 | 
13 | O=C(CC12CC3CC(CC(C3)C1)C2)Nc1cccc2c(=O)n(Cc3ccncc3)ccc12 [Compound 716] | ≥ 75 | 
14 | Cc1nn(C)c(C)c1Cn1ccc2c(NC(=O)CC34CC5CC(CC(C5)C3)C4)cccc2c1=O [Compound 718] | ≥ 75 | 
15 | Cc1cc(Cn2ccc3c(NC(=O)CC45CC6CC(CC(C6)C4)C5)cccc3c2=O)nn1C [Compound 719] | 25 to 50 | 
16 | C[C@@H](c1ccccc1)n1ccc2c(NC(=O)CC34CC5CC(CC(C5)C3)C4)cccc2c1=O [Compound 720] | ≥ 75 | 
17 | C[C@H](c1ccccc1)n1ccc2c(NC(=O)CC34CC5CC(CC(C5)C3)C4)cccc2c1=O [Compound 721] | ≥ 75 | 
18 | O=C(CC12CC3CC(CC(C3)C1)C2)Nc1cccc2c(=O)n(Cc3c(F)cccc3Cl)ccc12 [Compound 722] | ≥ 75 | 
19 | Cc1ccccc1Cn1ccc2c(NC(=O)CC34CC5CC(CC(C5)C3)C4)cccc2c1=O [Compound 723] | ≥ 75 | 

Row | SMILES | inhibition at 0.3 µM [%] | inhibition at 0.1 µM [%]
20 | O=C(CC12CC3CC(CC(C3)C1)C2)Nc1cccc2c(=O)n(CC3COCCO3)ccc12 (centres unmarked) [Compound 724] | ≥ 75 | 
21 | O=C(CC12CC3CC(CC(C3)C1)C2)Nc1cccc2c1CCN(Cc1ccc(F)cc1F)C2=O [Compound 725, 2-Adamantan-1-yl-N-[2-(2,4-difluoro-benzyl)-1-oxo-1,2,3,4-tetrahydro-isoquinolin-5-yl]-acetamide] | ≥ 75 | 
22 | O=C(CC12CC3CC(CC(C3)C1)C2)Nc1cccc2c1CCN(CC1CCCO1)C2=O (centres unmarked) [Compound 726] | ≥ 75 | 
23 | O=C(CC12CC3CC(CC(C3)C1)C2)Nc1cccc2c1CCN(Cc1cccnc1)C2=O [Compound 728] | ≥ 75 | 
24 | Cc1nn(C)c(C)c1CN1CCc2c(NC(=O)CC34CC5CC(CC(C5)C3)C4)cccc2C1=O [Compound 729] | ≥ 75 | 
25 | O=C(CC12CC3CC(CC(C3)C1)C2)Nc1cccc2c1CCN(Cc1ccco1)C2=O [Compound 730] | ≥ 75 | 
26 | CC(c1ccccc1)N1CCc2c(NC(=O)CC34CC5CC(CC(C5)C3)C4)cccc2C1=O (centres unmarked) [Compound 731] | ≥ 75 | 
27 | Cc1cnc(CN2CCc3c(NC(=O)CC45CC6CC(CC(C6)C4)C5)cccc3C2=O)cn1 [Compound 732] | ≥ 75 | 
28 | O=C(CC12CC3CC(CC(C3)C1)C2)Nc1cccc2c(=O)n(Cc3c(F)cccc3F)ccc12 [Compound 733] | ≥ 75 | 
29 | O=C(CC12CC3CC(CC(C3)C1)C2)Nc1cccc2c(=O)n(CC3COc4ccccc4O3)ccc12 (centres unmarked) [Compound 734] | ≥ 75 | 
30 | O=C(CC12CC3CC(CC(C3)C1)C2)Nc1cccc2c(=O)n(Cc3ccc(F)c(F)c3)ccc12 [Compound 735] | ≥ 75 | 
31 | CN(C)CCn1ccc2c(NC(=O)CC34CC5CC(CC(C5)C3)C4)cccc2c1=O [Compound 736] | ≥ 75 | 
32 | Cc1cc(Cn2ccc3c(NC(=O)CC45CC6CC(CC(C6)C4)C5)cccc3c2=O)no1 [Compound 737] | ≥ 75 | 
33 | Cc1nn(-c2ccccc2)nc1Cn1ccc2c(NC(=O)CC34CC5CC(CC(C5)C3)C4)cccc2c1=O [Compound 738] | ≥ 75 | 
34 | O=C(CC12CC3CC(CC(C3)C1)C2)Nc1cccc2c(=O)n(C[C@@H]3CCCO3)ccc12 [Compound 739] | ≥ 75 | 
35 | CC12CC3CC(C)(C1)CC(CC(=O)Nc1cccc4c(=O)n(CCc5c[nH]cn5)ccc14)(C3)C2 [Compound 741] | ≥ 75 | 
36 | CC(c1ccccc1)n1ccc2c(NC(=O)CC34CC5CC(C)(CC(C)(C5)C3)C4)cccc2c1=O (centres unmarked) [Compound 742] | ≥ 75 | 
37 | CC12CC3CC(C)(C1)CC(CC(=O)Nc1cccc4c(=O)n(Cc5ccccc5F)ccc14)(C3)C2 [Compound 743] | ≥ 75 | 
38 | CC12CC3CC(C)(C1)CC(CC(=O)Nc1cccc4c(=O)n(Cc5ccccn5)ccc14)(C3)C2 [Compound 744] | ≥ 75 | 

Row | SMILES | inhibition at 0.3 µM [%] | inhibition at 0.1 µM [%]
39 | Cc1cc(Cn2ccc3c(NC(=O)CC45CC6CC(C)(CC(C)(C6)C4)C5)cccc3c2=O)nn1C [Compound 745] | ≥ 75 | 
40 | CN1CCC(Cn2ccc3c(NC(=O)CC45CC6CC(C)(CC(C)(C6)C4)C5)cccc3c2=O)CC1 [Compound 746] | ≥ 75 | 
41 | CN(C)c1ccc(Cn2ccc3c(NC(=O)CC45CC6CC(CC(C6)C4)C5)cccc3c2=O)cc1 [Compound 747] | ≥ 75 | 
42 | CC(C)(C)OC(=O)N1CCC(Cn2ccc3c(NC(=O)CC45CC6CC(CC(C6)C4)C5)cccc3c2=O)CC1 [Compound 748] | ≥ 75 | 
43 | O=C(CC12CC3CC(CC(C3)C1)C2)Nc1cccc2c(=O)n(CC3CCNCC3)ccc12 [Compound 749] | ≥ 75 | 
44 | CCN1CCCC1Cn1ccc2c(NC(=O)CC34CC5CC(CC(C5)C3)C4)cccc2c1=O (centres unmarked) [Compound 750] | ≥ 75 | 
45 | CC12CC3CC(C)(C1)CC(CC(=O)Nc1cccc4c(=O)n(CCc5ccccn5)ccc14)(C3)C2 [Compound 752] |  | 50 to 75
46 | CC12CC3CC(C)(C1)CC(CC(=O)Nc1cccc4c(=O)n(Cc5ccc(C(F)(F)F)cc5)ccc14)(C3)C2 [Compound 753] |  | ≥ 75
47 | CC12CC3CC(C)(C1)CC(CC(=O)Nc1cccc4c(=O)n(Cc5ccc(F)cc5)ccc14)(C3)C2 [Compound 754] |  | ≥ 75
48 | CC12CC3CC(C)(C1)CC(CC(=O)Nc1cccc4c(=O)n(Cc5ccncc5)ccc14)(C3)C2 [Compound 755] |  | ≥ 75
49 | CC12CC3CC(C)(C1)CC(CC(=O)Nc1cccc4c(=O)n(Cc5cccnc5)ccc14)(C3)C2 [Compound 756] |  | 50 to 75
50 | Cc1cnc(Cn2ccc3c(NC(=O)CC45CC6CC(C)(CC(C)(C6)C4)C5)cccc3c2=O)cn1 [Compound 757] |  | ≥ 75
51 | CC12CC3CC(C)(C1)CC(CC(=O)Nc1cccc4c(=O)n(Cc5cn6ccccc6n5)ccc14)(C3)C2 [Compound 758] |  | ≥ 75
52 | CC12CC3CC(C)(C1)CC(CC(=O)Nc1cccc4c(=O)n(Cc5ccc(S(C)(=O)=O)cc5)ccc14)(C3)C2 [Compound 759] |  | 50 to 75
53 | CC12CC3CC(C)(C1)CC(CC(=O)Nc1cccc4c(=O)n(Cc5ccco5)ccc14)(C3)C2 [Compound 760] |  | 25 to 50
54 | Cc1cc(Cn2ccc3c(NC(=O)CC45CC6CC(C)(CC(C)(C6)C4)C5)cccc3c2=O)no1 [Compound 761] |  | 50 to 75
55 | CC12CC3CC(C)(C1)CC(CC(=O)Nc1cccc4c(=O)n(CC5COCCO5)ccc14)(C3)C2 (centres unmarked) [Compound 762] |  | 50 to 75
56 | CN(C)CCn1ccc2c(NC(=O)CC34CC5CC(C)(CC(C)(C5)C3)C4)cccc2c1=O [Compound 763] |  | 25 to 50
